Test system: NCI-H322M multicellular tumor spheroids, viability (% test/control)
Experiment: Anticancer human tumor NCI-H322M cell line growth inhibition;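 for viability, T/C: spheroids exposed to compound for seven days before readout; 100% = DMSO vehicle control wells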
Conditions: for IC50: curve of first compound; for viability, T/C: stronger effect = lower value; active = viability on the fitted dose curve at most 10% of control; inactive = the rest
Source text: Multicellular complex tumor spheroid response to DNA repair inhibitors in combination with DNA-damaging drugs
This study explores the anticancer activities of DNA-damaging drugs and inhibitors of DNA damage repair, both as single agents and in combinations. Complex tumor spheroids comprised of malignant cells, endothelial cells and mesenchymal stem cells served as an in vitro model for human solid tumors. This model system incorporates physiologically relevant features and patient-derived or established malignant cell lines with clinically relevant genetic alterations from many tumor types. Twenty-six patient-derived or established malignant cell lines were evaluated representing sarcoma, melanoma, small cell lung cancer (SCLC), non-small cell lung cancer (NSCLC), as well as bladder, ovarian and pancreatic cancers. The concentration ranges selected for each drug and investigational agent were based upon clinically achievable concentrations if the clinical Cmax of the agent was known.
Compounds. The drugs and compounds olaparib (NSC753686), talazoparib (NSC767125), berzosertib (NSC777718), elimusertib (NSC800525), nedisertib (NSC802822), VX-984 (NSC792969), AZD-1390 (NSC803789), temozolomide (NSC362856), topotecan (NSC609699), trabectedin (NSC813783), staurosporine (NSC755774), and gemcitabine (NSC613327) were obtained from the National Cancer Institute (NCI) Developmental Therapeutics Program Chemical Repository. The FDA-approved anticancer drug set is available from the Developmental Therapeutics Program at https://dtp.cancer.gov/organization/dscb/obtaining/available_plates.htm. […] The stock solutions were prepared in dimethyl sulfoxide (DMSO, Sigma-Aldrich, St. Louis, MO, cat. D2650) at 400-fold the tested concentration and stored at -70 degrees C. Prior to their use, the stock solutions were diluted in fresh medium and the final DMSO concentration in the assay was 0.25% (v/v). All drugs and investigational agents were tested over a range starting from a high concentration at or near the clinical Cmax and decreasing in half-log increments. If the clinical Cmax for an agent had not been determined, the highest concentration tested was 10 microM.
Cell Lines. The patient-derived cancer cell (PDC) lines: 156681-154-R-J1-PDC, 283228-195-R-J1-PDC, 287954-098-R-J1-PDC, 292921-168-R-J2-PDC, 349418-098-R-PDC, 425362-245-T-J1-PDC, 556581-035-R-J1-PDC, and BL0293-F563-PDC were received from the NCI Patient-Derived Models Repository (PDMR, https://pdmr.cancer.gov). The established cell lines HS-SY-2 (RRID:CVCL_8719), MPNST, and SYO-1 (RRID:CVCL_7146) were obtained from the Sloan Kettering Institute. The alveolar soft parts sarcoma cell line ASPS-1 (RRID:CVCL_S738) was established at the NCI and grown from internal seed stocks. The following established cell lines were purchased from the American Type Culture Collection (ATCC, Manassas, VA): G-401 (ATCC, cat. CRL-1441, RRID:CVCL_0270), SW982 (ATCC, cat. HTB-93, RRID:CVCL_1734), VA-ES-BJ (ATCC, cat. CRL-2138, RRID:CVCL_1785), NCI-H719 (ATCC, cat. CRL-5837, RRID:CVCL_1582), NCI-H196 (ATCC, cat. CRL-5823, RRID:CVCL_1509), NCI-H841 (ATCC, cat. CRL-5845, RRID:CVCL_1595), NCI-H1618 (ATCC, cat. CRL-5879, RRID:CVCL_1480), NCI-H1876 (ATCC, cat. CRL-5902, RRID:CVCL_1503), DMS 114 (ATCC, cat. CRL-2066; RRID:CVCL_1174), NCI-H211 (ATCC, cat. CRL-5824; RRID:CVCL_1529), and SW 1271 (ATCC, cat. CRL-2177, RRID:CVCL_1716). The small cell lung cancer cell line COR-L88 was purchased from Sigma-Aldrich (cat. 92031917-1VL, RRID:CVCL_1141). The non-small cell lung cancer cell lines NCI-H226 (RRID:CVCL_1544) and NCI-H322M (RRID:CVCL_1557) were established at the NCI and grown from internal seed stocks. Pooled donor human umbilical vein endothelial cells (HUVEC, Lonza, cat. CC-2519) and human mesenchymal stem cells (hMSC, Lonza, cat. PT-2501) were purchased from Lonza (Walkersville, MD).
Cell Culture. All cells were maintained in an incubator at 37 degrees C and 5% CO2 with 95% humidity. […]

[1] = second compound 0.003 µM, first compound 0.0316 µM
[2] = second compound 0.003 µM, first compound 0.1 µM
[3] = second compound 0.003 µM, first compound 0.316 µM
[4] = second compound 0.003 µM, first compound 1 µM
[5] = second compound 0.003 µM, first compound 3.16 µM
[6] = second compound 0.003 µM, first compound 10 µM

[2H]c1nc(C)nc([2H])c1-c1cc(NC[C@@H](C)c2cccc3c(C(=O)NC)ccnc23)ncn1 + COc1cc2c(cc1O)CCNC21CSC2c3c(OC(C)=O)c(C)c4c(c3C(COC1=O)N1C(O)C3Cc5cc(C)c(OC)c(O)c5C(C21)N3C)OCO4
active: viability, T/C [4] 10.9% | viability, T/C [5] 8.62% | viability, T/C [6] 5.55%
inactive: viability, T/C (second compound 30 pM, first compound 0.0316 µM) 80.4% | viability, T/C (second compound 30 pM, first compound 0.1 µM) 89.1% | viability, T/C (second compound 30 pM, first compound 0.316 µM) 85.6% | viability, T/C (second compound 30 pM, first compound 1 µM) 84.7% | viability, T/C (second compound 30 pM, first compound 3.16 µM) 75.2% | viability, T/C (second compound 30 pM, first compound 10 µM) 90.2% | viability, T/C (second compound 94.9 pM, first compound 0.0316 µM) 81.3% | viability, T/C (second compound 94.9 pM, first compound 0.1 µM) 76.7% | viability, T/C (second compound 94.9 pM, first compound 0.316 µM) 92.1% | viability, T/C (second compound 94.9 pM, first compound 1 µM) 90.1% | viability, T/C (second compound 94.9 pM, first compound 3.16 µM) 85.7% | viability, T/C (second compound 94.9 pM, first compound 10 µM) 94.9% | viability, T/C (second compound 0.0003 µM, first compound 0.0316 µM) 89% | viability, T/C (second compound 0.0003 µM, first compound 0.1 µM) 78.9% | viability, T/C (second compound 0.0003 µM, first compound 0.316 µM) 90.5% | viability, T/C (second compound 0.0003 µM, first compound 1 µM) 84.2% | viability, T/C (second compound 0.0003 µM, first compound 3.16 µM) 94.9% | viability, T/C (second compound 0.0003 µM, first compound 10 µM) 93.3% | viability, T/C (second compound 0.000949 µM, first compound 0.0316 µM) 81% | viability, T/C (second compound 0.000949 µM, first compound 0.1 µM) 79.3% | viability, T/C (second compound 0.000949 µM, first compound 0.316 µM) 84% | viability, T/C (second compound 0.000949 µM, first compound 1 µM) 82% | viability, T/C (second compound 0.000949 µM, first compound 3.16 µM) 76% | viability, T/C (second compound 0.000949 µM, first compound 10 µM) 75.8% | viability, T/C [1] 15.8% | viability, T/C [2] 12.2% | viability, T/C [3] 10.5%
> 10 µM: IC50 (second compound 30 pM) | IC50 (second compound 94.9 pM) | IC50 (second compound 0.0003 µM) | IC50 (second compound 0.000949 µM)
< 0.0316 µM: IC50 (second compound 0.003 µM)

[2H]c1nc(C)nc([2H])c1-c1cc(NC[C@@H](C)c2cccc3c(C(=O)NC)ccnc23)ncn1 + CC[C@@]1(O)C(=O)OCc2c1cc1n(c2=O)Cc2cc3c(CN(C)C)c(O)ccc3nc2-1
inactive: viability, T/C [1] 91.8% | viability, T/C [2] 128% | viability, T/C [3] 94.1% | viability, T/C [4] 84.1% | viability, T/C [5] 112% | viability, T/C [6] 103% | viability, T/C (second compound 0.00949 µM, first compound 0.0316 µM) 86.6% | viability, T/C (second compound 0.00949 µM, first compound 0.1 µM) 89.9% | viability, T/C (second compound 0.00949 µM, first compound 0.316 µM) 105% | viability, T/C (second compound 0.00949 µM, first compound 1 µM) 89.9% | viability, T/C (second compound 0.00949 µM, first compound 3.16 µM) 89.8% | viability, T/C (second compound 0.00949 µM, first compound 10 µM) 117% | viability, T/C (second compound 0.03 µM, first compound 0.0316 µM) 77.2% | viability, T/C (second compound 0.03 µM, first compound 0.1 µM) 75.5% | viability, T/C (second compound 0.03 µM, first compound 0.316 µM) 76.7% | viability, T/C (second compound 0.03 µM, first compound 1 µM) 82.9% | viability, T/C (second compound 0.03 µM, first compound 3.16 µM) 114% | viability, T/C (second compound 0.03 µM, first compound 10 µM) 103% | viability, T/C (second compound 0.0949 µM, first compound 0.0316 µM) 80.6% | viability, T/C (second compound 0.0949 µM, first compound 0.1 µM) 80.7% | viability, T/C (second compound 0.0949 µM, first compound 0.316 µM) 78.3% | viability, T/C (second compound 0.0949 µM, first compound 1 µM) 74.5% | viability, T/C (second compound 0.0949 µM, first compound 3.16 µM) 72.5% | viability, T/C (second compound 0.0949 µM, first compound 10 µM) 85.5% | viability, T/C (second compound 0.3 µM, first compound 0.0316 µM) 72.2% | viability, T/C (second compound 0.3 µM, first compound 0.1 µM) 59% | viability, T/C (second compound 0.3 µM, first compound 0.316 µM) 60.2% | viability, T/C (second compound 0.3 µM, first compound 1 µM) 60.3% | viability, T/C (second compound 0.3 µM, first compound 3.16 µM) 62.2% | viability, T/C (second compound 0.3 µM, first compound 10 µM) 64.9%
> 10 µM: IC50 (second compound 0.003 µM) | IC50 (second compound 0.00949 µM) | IC50 (second compound 0.03 µM) | IC50 (second compound 0.0949 µM) | IC50 (second compound 0.3 µM)

From PubChem BioAssay AID1845211 (Molecular Pharmacology Branch, DTP, NCI, 2023)
